Patent publication US8889878B2, “Haloalky-substituted amides as insecticides and acaricides” (Bayer CropScience AG, priority 2009, dated 2014)

Assay: logP by HPLC on reverse-phase column (EEC Directive 79/831 Annex V.A8)
Type: physicochemical
Conditions: for chromatographic logP: reverse-phase C18 HPLC column, pH 2.7, HPLC, C18 reverse phase, 43° C., acidic range pH 2.7, calibration with alkan-2-ones; for logP: HPLC-MS
Description: The logP values reported in the above Tables and Preparation Examples were determined according to EEC Directive 79/831 Annex V.A8 by HPLC (High Performance Liquid Chromatography) on a reverse-phase column (C18). Temperature 43° C.

| SMILES | chromatographic logP | logP |
| --- | --- | --- |
| CCOC(=O)c1cc2cc(C(=O)NC(c3cccc(C(F)(F)F)c3)C(F)(F)F)n(C)c2cc1Cl (centres unmarked) [Ethyl 6-chloro-1-methyl-2-({2,2,2-trifluoro-1-[3-(trifluoromethyl)phenyl]ethyl}carbamoyl)-1H-indole-5-carboxylate] | 4.74 | – |
| CCOC(=O)c1cc2cc(C(=O)NC(c3cccc(C(F)(F)F)c3)C(F)(F)F)[nH]c2cc1Cl (centres unmarked) [Ethyl 6-chloro-2-({2,2,2-trifluoro-1-[3-(trifluoromethyl)phenyl]ethyl}carbamoyl)-1H-indole-5-carboxylate] | 4.12 | – |
| O=C(/C=C/c1ccc(NC(=O)c2cccnc2Cl)cc1)NC(c1cc(Cl)cc(Cl)c1)C(F)(F)F (centres unmarked) [Ia-2] | – | HPLC-MS: logP = 3.69; mass |
| CC(=O)Nc1ccc(/C=C/C(=O)NC(c2cccc(C(F)(F)F)c2)C(F)(F)F)cc1 (centres unmarked) [Ia-3] | – | HPLC-MS: logP = 2.95; mass |
| O=C(/C=C/c1cccc(NC(=O)C2CC2)c1)NC(c1cccc(C(F)(F)F)c1)C(F)(F)F (centres unmarked) [Ia-4] | – | HPLC-MS: logP = 3.42; mass |
| O=C(/C=C/c1ccc(NC(=O)CC(F)(F)F)cc1)NC(c1cccc(C(F)(F)F)c1)C(F)(F)F (centres unmarked) [Ia-6] | – | HPLC-MS: logP = 3.43; mass |
| O=C(/C=C/c1ccc(-n2cncn2)c([N+](=O)[O-])c1)NC(c1cccc(C(F)(F)F)c1)C(F)(F)F (centres unmarked) [Ia-9] | – | HPLC-MS: logP = 3.11; mass |
| N#Cc1cc(/C=C/C(=O)NC(c2cccc(C(F)(F)F)c2)C(F)(F)F)ccc1-n1cncn1 (centres unmarked) [Ia-10] | – | HPLC-MS: logP = 2.99; mass |
| Cc1cc(/C=C/C(=O)NC(c2cccc(C(F)(F)F)c2)C(F)(F)F)ccc1C(=O)NC1CC1 (centres unmarked) [Ia-11] | – | HPLC-MS: logP = 3.02; mass |
| Cc1cc(/C=C/C(=O)NC(c2cc(Cl)cc(Cl)c2)C(F)(F)F)ccc1C(=O)NC1CC1 (centres unmarked) [Ia-12] | – | HPLC-MS: logP = 3.33; mass |
| N#Cc1cc(/C=C/C(=O)NC(c2cccc(F)c2)C(F)(F)F)ccc1-n1cncn1 (centres unmarked) [Ia-13] | – | HPLC-MS: logP = 2.61; mass |
| N#Cc1cc(/C=C/C(=O)NC(c2ccc(C(F)(F)F)cc2)C(F)(F)F)ccc1-n1cncn1 (centres unmarked) [Ia-14] | – | HPLC-MS: logP = 3.08; mass |
| N#Cc1cc(/C=C/C(=O)NC(c2cc(Cl)cc(Cl)c2)C(F)(F)F)ccc1-n1cncn1 (centres unmarked) [Ia-16] | – | HPLC-MS: logP = 3.33; mass |
| Cc1cc(/C=C/C(=O)NC(c2cc(Cl)cc(Cl)c2)C(F)(F)F)ccc1C(=O)NCC(F)(F)F (centres unmarked) [Ia-20] | – | HPLC-MS: logP = 3.90; mass |
| CN(C(=O)/C=C/c1ccc(C#N)cc1)C(c1cccc(C(F)(F)F)c1)C(F)(F)F (centres unmarked) [Ia-25, (2E)-3-(4-Cyanophenyl)-N-methyl-N-{2,2,2-trifluoro-1-[3-(trifluoromethyl)phenyl]-ethyl}acrylamide] | 4.01 | – |
| COC(=O)c1ccc(/C=C/C(=O)NC(c2cccc(C(F)(F)F)c2)C(F)(F)F)cc1C (centres unmarked) [Ia-26] | – | HPLC-MS: logP = 4.09; mass |
| O=C(/C=C/c1ccc(C(=O)NCc2ccccn2)c(C(F)(F)F)c1)NC(c1cccc([N+](=O)[O-])c1)C(F)(F)F (centres unmarked) [Ia-33] | – | HPLC-MS: logP = 2.93; mass |
| O=C(/C=C/c1ccc(C(=O)NCc2ccccn2)c(C(F)(F)F)c1)NC(c1ccc([N+](=O)[O-])cc1)C(F)(F)F (centres unmarked) [Ia-34] | – | HPLC-MS: logP = 2.93; mass |
| O=C(/C=C/c1ccc(C(=O)NCc2ccccn2)c(C(F)(F)F)c1)NC(c1c(F)cccc1F)C(F)(F)F (centres unmarked) [Ia-35] | – | HPLC-MS: logP = 2.46; mass |
| O=C(/C=C/c1ccc(C(=O)NC2CC2)c(C(F)(F)F)c1)NC(c1c(F)cccc1F)C(F)(F)F (centres unmarked) [Ia-38] | – | HPLC-MS: logP = 2.89; mass |
| Cc1cc(/C=C/C(=O)NC(c2cc(Cl)cc(C(F)(F)F)c2)C(F)(F)F)ccc1C(=O)NC1CC1 (centres unmarked) [Ia-39] | – | HPLC-MS: logP = 3.47; mass |
| O=C(/C=C/c1ccc(C(=O)Nc2cccnc2)c(C(F)(F)F)c1)NC(c1cccc(C(F)(F)F)c1)C(F)(F)F (centres unmarked) [Ia-53] | – | HPLC-MS: logP = 2.76; mass |
| COC(=O)c1ccc(C(NC(=O)/C=C/c2ccc(C(=O)NC3CC3)c(C(F)(F)F)c2)C(F)(F)F)cc1C(F)(F)F (centres unmarked) [Ia-81] | – | HPLC-MS: logP = 3.09; mass |
